The values below come from patent US12534469B2 (CHILDREN'S HOSPITAL MEDICAL CENTER, priority 2020, dated 2026).

The target in one test is T1, IRAK1 (Homo sapiens, UniProt P51617).
T1 construct: purchased Reaction Biology (RBC HotSpot Kinase Assay)
Briefly: RBC HotSpot Kinase Assay, IRAK1. In kind it is biochemical. The method, boiled down:
(§1)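 Radiometric filter-binding (HotSpot) activity assay on isolated recombinant kinase, possibly truncated or catalytic domain only, in 20 mM Hepes pH 7.5, 10 mM MgCl2, 1 mM EGTA, 2 mM DTT, 1% DMSO. Compound preincubated 20 min with kinase and substrate, then ^33P-ATP added. Reaction 2 h at room temperature, read by P81 filter binding.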

Another test deals with T2, IRAK4 (Homo sapiens, UniProt Q9NWZ3).
T2 sequence (Q9NWZ3 1-460): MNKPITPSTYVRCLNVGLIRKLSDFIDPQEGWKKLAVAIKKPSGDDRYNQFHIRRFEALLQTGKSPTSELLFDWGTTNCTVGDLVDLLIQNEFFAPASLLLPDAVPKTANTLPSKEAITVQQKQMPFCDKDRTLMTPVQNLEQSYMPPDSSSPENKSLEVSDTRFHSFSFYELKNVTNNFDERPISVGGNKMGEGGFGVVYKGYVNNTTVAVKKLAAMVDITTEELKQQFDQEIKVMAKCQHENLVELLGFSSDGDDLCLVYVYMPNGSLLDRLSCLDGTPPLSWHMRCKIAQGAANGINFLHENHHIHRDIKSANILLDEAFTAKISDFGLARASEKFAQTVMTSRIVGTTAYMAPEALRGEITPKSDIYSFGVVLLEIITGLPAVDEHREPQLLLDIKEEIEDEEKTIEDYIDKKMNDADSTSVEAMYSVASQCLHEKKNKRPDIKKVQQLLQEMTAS
Briefly: RBC HotSpot Kinase Assay, IRAK4. The format is biochemical. Also noted: purchased Reaction Biology (RBC HotSpot Kinase Assay). Put shortly:
as §1

Another test has as its target T3, FLT3 (Homo sapiens, UniProt P36888).
T3 construct: purchased Reaction Biology (RBC HotSpot Kinase Assay)
T3 sequence (P36888 564-958 limits assumed): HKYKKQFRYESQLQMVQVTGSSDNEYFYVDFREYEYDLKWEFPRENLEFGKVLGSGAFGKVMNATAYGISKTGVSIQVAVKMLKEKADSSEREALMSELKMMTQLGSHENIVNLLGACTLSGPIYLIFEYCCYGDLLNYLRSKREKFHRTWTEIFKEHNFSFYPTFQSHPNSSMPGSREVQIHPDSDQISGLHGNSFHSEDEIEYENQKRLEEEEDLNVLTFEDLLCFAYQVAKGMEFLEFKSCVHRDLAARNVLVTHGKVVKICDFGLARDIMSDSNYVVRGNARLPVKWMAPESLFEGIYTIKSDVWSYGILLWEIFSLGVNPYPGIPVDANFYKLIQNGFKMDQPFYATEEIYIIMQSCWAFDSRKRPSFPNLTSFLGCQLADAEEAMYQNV
Description: RBC HotSpot Kinase Assay, FLT3. The format is biochemical. The method, boiled down:
as §1

The next test concerns MOLM14 D835Y cells. Briefly: MOLM14 D835Y cell viability assay (Cell Titer Glo). The format is cell-based. The following applies: Homo sapiens, MOLM-14, 48 h. The procedure:
Both cell lines have activated FLT3 receptors, each of which carry additional resistance mutations in the kinase domain (D835Y and F691L, respectively).
MOLM14 D835Y and MOLM14 F691L cells were grown in RPMI-1640 media supplemented with 20% fetal bovine serum (FBS). For viability/cytotoxicity assessments, cells were seeded into 1536-well white polystyrene tissue culture-treated Greiner plates using a Multidrop Combi dispenser (ThermoFisher), in final volume 5 μL of growth media per well, at a density of 1000 cells per well. After cell addition, 23 nL of test compound were transferred into individual wells (22 doses tested for each test compound, with a 1:2 dilution series starting at 10 μM) via a 1536 pin-tool. Bortezomib (final concentration 2.3 μM) was used as a positive control for cell cytotoxicity. Plates were incubated for 48 hours at standard incubator conditions covered by a stainless steel gasketed lid to prevent evaporation. 48 hours post compound addition, 3 μL of Cell Titer Glo (Promega) were added to each well and plates were incubated at room temperature for 15 minutes with the stainless-steel lid in place. Luminescence readings were taken using a Viewlux imager (PerkinElmer) with a 2 second exposure time per plate.

In a further test the test system is MOLM14 (D835Y) cells. Briefly: Combination drug screening, 10 x 10 matrix, cell viability (Cell Titer Glo). The following applies: for Sum Excess HSA / Interaction with Compound 96: combination with Compound 96, 10 x 10 dataset; for Sum Excess HSA: 48 hours; for Interaction with Venetoclax: combination with Venetoclax, 10 x 10 dataset; for concentration required to reach a similar level of potentiation as Compound 106: 7.8 nM Venetoclax, 10×10 combination, compared with Compound 106. The format is cell-based. The procedure:
Briefly, 10 nL of compounds were acoustically dispensed into 1536-well white polystyrene tissue culture-treated plates with an Echo 550 acoustic liquid handler (Labcyte). MOLM14 (D835Y) cells were then added to compound-containing plates at a density of 500-cells/well in 5 μL of medium. A 10-point custom concentration range was used for all listed drugs. Plates were incubated for 48 hours at standard incubator conditions covered by a stainless steel gasketed lid to prevent evaporation. 48 h post compound addition, 3 μL of Cell Titer Glo (Promega) were added to each well and plates were incubated at room temperature for 15 minutes with the stainless-steel lid in place. Luminescence readings were taken using a Viewlux imager (PerkinElmer) with a 2 second exposure time per plate.
However, different methodologies may yield different numerical scores, and different definitions of what constitutes a deviation from mere additivity vs true drug synergy.
However, the utility in certain drug combinations vs others should not be distinguished based on cutoffs between HSA scores, because the score itself is only a relative indicator that is completely dependent on experimental design and is not an absolute number. Furthermore, the concept of what constitutes clinically meaningful drug synergy is something that is still being debated, not only between pharmacologists and physicians, but amongst pharmacologists themselves.
(ATP-based viability assays read luminescence as a measure of living cells.)

T1 sequence (P51617 whole entry): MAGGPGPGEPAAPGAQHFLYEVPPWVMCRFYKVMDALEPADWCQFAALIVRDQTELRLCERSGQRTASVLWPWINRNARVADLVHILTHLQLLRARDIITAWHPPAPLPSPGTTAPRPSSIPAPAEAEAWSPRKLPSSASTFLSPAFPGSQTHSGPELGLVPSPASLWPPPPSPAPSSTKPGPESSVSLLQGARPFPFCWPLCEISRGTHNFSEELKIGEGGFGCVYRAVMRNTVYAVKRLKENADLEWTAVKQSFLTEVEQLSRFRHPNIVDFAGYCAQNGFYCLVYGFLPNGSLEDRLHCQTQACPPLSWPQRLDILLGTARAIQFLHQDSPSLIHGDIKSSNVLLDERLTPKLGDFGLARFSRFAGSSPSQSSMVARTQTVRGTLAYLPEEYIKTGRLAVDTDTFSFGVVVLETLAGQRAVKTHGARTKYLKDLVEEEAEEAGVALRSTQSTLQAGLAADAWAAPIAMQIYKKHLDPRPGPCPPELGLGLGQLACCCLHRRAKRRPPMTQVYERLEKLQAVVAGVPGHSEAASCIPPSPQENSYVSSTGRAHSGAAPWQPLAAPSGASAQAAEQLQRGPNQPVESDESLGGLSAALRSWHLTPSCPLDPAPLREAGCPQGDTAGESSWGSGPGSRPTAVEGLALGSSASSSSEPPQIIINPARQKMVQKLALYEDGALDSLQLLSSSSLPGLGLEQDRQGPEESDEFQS

`COc1cc2ncc(-c3cccc(N[C@@H]4CCNC4)n3)n2nc1C1(C(F)(F)F)CC1` [Compound 81, (R)-6-(7-methoxy-6-(1-(trifluoromethyl)cyclopropyl)imidazo[1,2-b]pyridazin-3-yl)-N-(pyrrolidin-3-yl)pyridin-2-amine]: the IC50 was found to be 954 nM against IRAK1, 25 nM on IRAK4, 2 nM on FLT3 and 591 nM in the test on MOLM14 D835Y cells.
In the same order, the values of `COc1cc2ncc(-c3cccc(N[C@H]4CNCC45CC5)n3)n2nc1C1CC1` [Compound 100, (R)-N-(6-(6-cyclopropyl-7-methoxyimidazo[1,2-b]pyridazin-3-yl)pyridin-2-yl)-5-azaspiro[2.4]heptan-7-amine] are 1380 nM, under 0.5 nM, under 0.5 nM and 20 nM.
In the case of `CC1(C)CC[C@]2(NC(=O)C(C)(F)F)CC[C@]3(C)[C@H](C(=O)C=C4[C@@]5(C)C=C(C#N)C(=O)C(C)(C)[C@@H]5CC[C@]43C)[C@@H]2C1` [Omaveloxolone], the “Sum Excess HSA” value in the test with MOLM14 (D835Y) cells stood at 196.
For the compound `C[C@@H]1C[C@H]2[C@@H]3CCC4=CC(=O)C=C[C@]4(C)[C@@]3(F)[C@@H](O)C[C@]2(C)[C@@]1(O)C(=O)CO` [Dexamethasone, dexamethasone, reference compound], the “Sum Excess HSA” value in the test on MOLM14 (D835Y) cells is listed as −69.67.
Regarding “Gilteritinib hemifumerate [reference compound]”, the “Interaction with Venetoclax” value with MOLM14 (D835Y) cells is “synergize”.
With `CN1C(=O)N[C@H](Cc2c[nH]c3c(Cl)cccc23)C1=O` [Necrostatin 2], in the test with MOLM14 (D835Y) cells, the “Sum Excess HSA” value is 288.7.
On the same count and under the same terms, in the case of `CC(C)[C@@H](CS(=O)(=O)C(C)C)N1C(=O)[C@@](C)(CC(=O)O)C[C@H](c2cccc(Cl)c2)[C@H]1c1ccc(Cl)cc1` [AMG-232] it was −222.9.
Turning to `O=C1CC[C@H](N2Cc3c(OCc4ccc(CN5CCOCC5)cc4)cccc3C2=O)C(=O)N1` [Iberdomide], the “Interaction with Compound 96” value with MOLM14 (D835Y) cells is on record as “Antagonistic”.
For `Cc1c(-c2c(-c3ccc(F)o3)sc3ncnc(O[C@H](Cc4ccccc4OCc4ccnn4CC(F)(F)F)C(=O)O)c23)ccc(OCCN2CCN(C)CC2)c1Cl` [Compound S63845], the “Sum Excess HSA” value with MOLM14 (D835Y) cells came out at 297.3.
Turning to `F[C@H]1CNC[C@@H]1Nc1cccc(-c2cnc3cc(C4CC4)cnn23)n1` [Compound 111, 6-(7-cyclopropylimidazo[1,2-b]pyridazin-3-yl)-N-((3S,4S)-4-fluoropyrrolidin-3-yl)pyridin-2-amine], the IC50 came to 774 nM at IRAK1, 131 nM against IRAK4, 4 nM on FLT3 and 1010 nM in the test with MOLM14 D835Y cells.
Turning to `Cc1cc(-c2nc(C(=O)Nc3cc4oc(N5CCOCC5)nc4nc3N3CC[C@@H](O)C3)co2)ccn1` [CA-4948, reference compound], in the test on MOLM14 (D835Y) cells, the “concentration required to reach a similar level of potentiation as Compound 106” value (“concentration required” for short) is reported as “substantially higher concentrations” and the “Interaction with Venetoclax” value was “synergize”.
Regarding `COc1cccc2nc(-c3cccs3)nc(NN3C(=O)C=C(C)C3=O)c12` [SPC-839], in the test on MOLM14 (D835Y) cells, the “Sum Excess HSA” value is given as −326.8.
Regarding “Gilteritinib hemifumarate [reference compound]”, the “concentration required” value in the test on MOLM14 (D835Y) cells is “substantially higher concentrations”.
Regarding `CC1(C)CCC(C)(C)c2cc(NC(=O)c3ccc(C(=O)O)cc3)ccc21` [Tamibarotene], the “Sum Excess HSA” value with MOLM14 (D835Y) cells worked out at 850.4.
Regarding `CC(=O)c1c(C)c2cnc(Nc3ccc(N4CCNCC4)cn3)nc2n(C2CCCC2)c1=O` [Palbociclib, reference compound], the “Sum Excess HSA” value in the test on MOLM14 (D835Y) cells is recorded as 999.2.
The same measure, in the same setting: under `C[C@]12C=CC(=O)C=C1CC[C@@H]1[C@@H]2[C@@H](O)C[C@@]2(C)[C@H]1CC[C@]2(O)C(=O)CO` [Prednisolone, prednisolone, reference compound] stands −46.1.
As to `Cc1cnc(-c2ccc(-c3ccc(NC(=O)Nc4c(F)cc(F)cc4F)cc3F)c3c2C(=O)NC3)[nH]1` [CG-806, reference compound], in the test on MOLM14 (D835Y) cells, the “concentration required” value was “substantially higher concentrations” and the “Interaction with Venetoclax” value is on record as “synergize”.
Turning to `CCOC(=O)c1ccc(C#Cc2ccc3c(c2)C(C)(C)CCS3)nc1` [Tazarotene], the “Sum Excess HSA” value in the test with MOLM14 (D835Y) cells is reported as −189.
Take `C[C@H]1C[C@@H]2[C@H]([C@@H](O)C[C@@]3(C)[C@H]2CC[C@]3(O)C(=O)CO)[C@@]2(C)C=CC(=O)C=C12` [Methylprednisolone, methylprednisolone, reference compound]: in the test with MOLM14 (D835Y) cells, the “Sum Excess HSA” value worked out at 891.
In the case of `F[C@H]1CNC[C@@H]1Nc1cccc(-c2cnc3cccnn23)n1` [Compound 109, N-((3S,4S)-4-fluoropyrrolidin-3-yl)-6-(imidazo[1,2-b]pyridazin-3-yl)pyridin-2-amine], the IC50 was over 10000 nM at IRAK1, 399 nM at IRAK4, 9 nM at FLT3 and 968 nM in the test on MOLM14 D835Y cells.
Regarding `COc1c(OCCCN2CCOCC2)ccc2c1N=C(NC(=O)c1cnc(N)nc1)N1CCN=C21` [Copanlisib], the “Sum Excess HSA” value in the test with MOLM14 (D835Y) cells is recorded as −542.8.
`COc1cc2ncc(-c3cccc(N[C@@H]4CCCNC4)n3)n2nc1C1(C(F)(F)F)CC1` [Compound 84, (R)-6-(7-methoxy-6-(1-(trifluoromethyl)cyclopropyl)imidazo[1,2-b]pyridazin-3-yl)-N-(piperidin-3-yl)pyridin-2-amine]: the IC50 on IRAK1 is 536 nM; on IRAK4, 83 nM; at FLT3, 1 nM; in the test on MOLM14 D835Y cells, 179 nM.
For the compound `F[C@H]1CNC[C@@H]1Nc1cccc(-c2cnc3cc(Cl)cnn23)n1` [Compound 110, 6-(7-chloroimidazo[1,2-b]pyridazin-3-yl)-N-((3S,4S)-4-fluoropyrrolidin-3-yl)pyridin-2-amine], the IC50 at IRAK1 worked out at 3710 nM; on IRAK4 it was 190 nM; against FLT3, 6 nM; in the test with MOLM14 D835Y cells, 591 nM.
As for `CC(C)(C)c1cc(NC(=O)Nc2ccc(-c3cn4c(n3)sc3cc(OCCN5CCOCC5)ccc34)cc2)no1` [Quizartinib, reference compound], in the test on MOLM14 (D835Y) cells, the “concentration required” value is given as “substantially higher concentrations” and the “Interaction with Venetoclax” value was “synergize”.
With `CN1C(=O)[C@@H](NC(=O)c2n[nH]c(Cc3ccccc3)n2)COc2ccccc21` [GSK-2982772], in the test on MOLM14 (D835Y) cells, the “Interaction with Compound 96” value was “Synergestic” and the “Sum Excess HSA” value is −577.

What is called IC50 is the point on the concentration scale where inhibition reaches its midpoint. Low readings indicate higher potency, high ones lower potency.
